Experimental data: patent US20180289702A1, “LPA LEVEL REDUCTION FOR TREATING CENTRAL NERVOUS SYSTEM DISORDERS” (priority 2015, published 2018)

What was measured:
[1] = test system: PRG-1+/− mice; assay: spontaneous postsynaptic currents (sPSC) with HA130; assay type: cell-based
[2] = test system: neuronal hyperexcitability induced by Ketamine; assay: ketamine-induced potentiation of evoked local field potentials (LFPs); assay type: cell-based, mice
Source text: This aim was to unravel whether ATX-inhibition is able to revert cortical hyperexcitability and an altered E/I balance independent of the underlying cause. As previously described (Nosyreva E et al. 2013), ketamine application inhibits spontaneous neurotransmission and induces afterwards a potentiation of synaptic responses over time (FIG. 8A).

[3] = test system: PRG-1+/− mice; assay: in vivo multi-unit activity (MUA) recordings in S1BF cortex; conditions: 1 μM applied into the cortex of living PRG-1+/− mice
Source text: In order to characterize the role of PRG-1 in cortical networks, the inventors then assessed expression of PRG-1 in the cerebral cortex and found strong expression in layer IV of the mouse somatosensory barrel field cortex (FIG. 3A) which was restricted to glutamatergic neurons. […] To understand implications of such a reduced synaptic PRG-1 function in intracortical information processing, the inventors performed multi-channel extracellular recordings in the S1BF cortex of wt and PRG-1^+/- mice in vivo (FIG. 3D). […] This finding points to a change in the cellular E/I balance towards excitation within cortical microcircuitries which has been related to severe behavioral deficits (Yizhar et al., 2011).

[4] = test system: PRG-1 het mice; assay: mEPSC recordings with HA-130; assay type: cell-based
[5] = test system: PRG-1+/− mice; assay: double-pulse whisker stimulation model of sensory gating; assay type: in vivo; conditions: animals with monoallelic PRG-1-deficiency, ISI 500 ms
Source text: In addition to analysis of spontaneous cortical network activity, the inventors assessed pre-attentive cortical information processing and measured sensory gating in a double-pulse whisker stimulation model (FIG. 4A). Local field potentials (recorded in the whisker-specific cortical barrel) in response to repetitive single-whisker stimulation elicited larger amplitudes to second stimulus in PRG-1^+/− when compared to wt (S1; S2; ISI=500 ms; FIG. 4B). […] These findings indicate that already loss of one functional allele of prg-1 as present in mutPRG-1 carriers, and thus a reduction of about 50% of functional PRG-1 at the synapse, causes an apparent E/I-imbalance in cortical networks and an altered sensory gating.

In the case of `O=C1S/C(=C\c2ccc(OCc3cccc(B(O)O)c3)cc2)C(=O)N1Cc1ccc(F)cc1` [HA130, (Z)-3-((4-((3-(4-Fluorobenzyl)-2,4-dioxo-1,3-thiazolan-5-yliden)-methyl)phenoxy)methyl)benzeneboronic acid], the “spontaneous postsynaptic currents (sPSC)” value ([1]; 1 μM) is reported as “significant decrease”, the “spontaneous postsynaptic currents (sPSC)” value ([1]; 10 μM) is reported as “significant decrease” and the “ketamine-induced potentiation (evoked LFPs)” value ([2]; 10 μM during ketamine wash out / potentiation phase) is reported as “significantly decreased”. The “ketamine-induced potentiation, input-output curves” value ([2]; after HA-130 treatment) was “reverted to baseline values”, the “number of multi-unit activity (MUA) bursts” value [3] was “significantly decreased” and the “mEPSCs (spontaneous glutamatergic release at presynaptic terminals)” value ([4]; 10 μM (FIG. 12B), genotype not stated in the panel legend) was “decreased”. The mEPSCs ([4]; 10 μM, PRG-1 het mice (FIG. 12A)) was “decreased”, the S2/S1-ratio [5] was “reduced” and the sensory gating [5] was “significantly restored”.
